Test results as given in patent US10807958B2, “1,4-bis(3-aminopropyl)piperazine derivative and its use” (INSERM (Institut National de la Sante et de la Recherche …, priority 2015, dated 2020).

Experiments:
[1] = test system: Neuroblastoma SKNSH-SY5Y cells expressing the human Tau isoform 412; experiment: 2D gel electrophoresis of Tau isovariants in treated cells; type: cell-based; settings: 10 μM, vs control conditions, FIG. 2
Excerpt: Pan-Tau and phospho-dependent Tau antibodies included Tau-Nter (M19G, 1/10 000, Sergeant et al., 1999), Tau-Cter (1/10 000, Sergeant et al., 1999, Le Freche et al., 2012), Tau-1 (1/5000, Merck Millipore), S199P (directed against the phospho-serine 199, 1/4000, Sergeant et al., 1999), Tau-Phospho S396 (directed against the phosphor-serine 396, 1/10000, Lifetechnologies), Tau-Phospho 404 (1/10 000, Lifetechnologies), 422 (clone 2H9, a homemade monoclonal antibody developed against a phospho-peptide containing the phosphorylated serine 422 residue of Tau, numbering according to the longest human brain Tau-441 isoform), AT8 (1/1000, Thermo Scientific), AT270 (1/2000, Thermo Scientific), AT100 (1/1000, Thermo Scientific). Neuron specific enolase (1/10 000), β-actin (1/5000) and β-tubulin (1/10 000) were from Sigma-Aldrich.
Human neuroblastoma cell line SKNSH-SY5Y cells expressing the human Tau isoform 412 (with the exon 2 and 10 encoding sequences) (or SY5Y-Tau46) was as previously described in Bretteville et al., 2009. […]
The effect of the compound of Formula I on Tau phosphorylation was analyzed in vitro and in vivo. […]
Expression and total phosphorylation was assessed by 1D and 2D gel electrophoresis using phospho-dependent and pan-Tau antibodies (FIGS. 1 and 2). […]

[2] = test system: endogenous Tau (MAPT) of wild-type C57/BL6 animals; experiment: 2D gel electrophoresis of endogenous brain Tau in treated wild-type animals; type: in vivo, mouse; settings: wild-type mice, 1 month; for number of Tau isovariants stained with antibody S199: 5 isovariants in non-treated condition
Excerpt: Wild-type C57BL/6J animals of 3 months were purchased at Charles Rivers Laboratories (France) and were allow to acclimate in the animal facility for at least one week before any treatment. Thy-Tau22 transgenic colonies (C57BL/6J genetic background) were obtained by crossing heterozygous Thy-Tau22 males with C57BL/6 WT females. […] In this model, a progressive development of NFT is observed in the hippocampus and amygdala, which parallels behavioral impairments (Schindowski et al., 2006). Furthermorever, in the hippocampus, hyper- and abnormally phosphorylated Tau species accumulate within the somato-dendritic area (Schindowski et al., 2006).
For animal treatment, animals were randomly distributed and the compound of Formula I was given in the drinking water at final concentration of 0.5 or 1 mg/kg. Drinking bottles were changed once per week, volume consumption was measured along the treatment period. Food consumption and body weight were assessed. In wild-type animals the pilot study of drug treatment was performed for one month to establish the innocuousness of the treatment with the compound of Formula I. This was based on the physiological, social and behavioural assessments. Thy-Tau22 males were treated for 4 months starting at 3 month old. All protocols were approved by the local ethics committee (n^∘342012, CEEA).
After behavioral assessment, blood was collected in 1.5 mL polypropylene tubes (Eppendorf, France), mice were sacrificed by cervical dislocation to avoid any modifications instrumental to anesthesia (Lefreche et al. 2012). Hippocampi and cortices were dissected and snap frozen in 1.5 mL tubes (Eppendorf). Tissue was homogenized in Tris-HCl buffer (10 mM pH 7.4) containing 320 mM sucrose, protease inhibitors (Complete mini EDTA-free, Roche) sonicated and spun at 12,000×g for 10 min at 4° C. The supernatant was recovered, protein concentration was achieved using the BCA Protein quantification assay kit (Pierce) according to the manufacturer instruction. The supernatant was further processed for biochemical analyses or kept at −80° C. For 1D or 2D gels, the same lysis buffer was used. Thus, equal amount protein in Tris buffer were added with a solution containing 7M urea, 2M thiourée with 2% SDS and sonicated at 60 Hz 30 pulses.
Two-dimensional gel electrophoresis was performed according to the recently published procedure (Fernandez-Gomez et al., 2014). Briefly, cells were rinsed once with PBS and lysed in UTS buffer (7M urea, 2M thiourea, 2% SDS) and sonicated at 60 Hz 30 pulses. Lysate was precipitated with methanol/chloroform. 50 μg of proteins were precipitate using the chloroform/methanol procedure and the pellet was dissolved in 2D buffer [urea 7M, thiourea 2M, 4% CHAPS, and 0.6% Pharmalytes 3-10 (G&E Healthcare)]. […] The strips were layered onto a 4-12% Bis-Tris Poly-acrylamide Gel XT™ Precast Criterion (BioRad) and run with a constant tension of 100V as described for 1D SDS-PAGE. The Western blot was performed as above described for 1D SDS-PAGE and Western-blotting.
To further determine the effect of the compound of Formula I on Tau metabolism, wild-type C57/BL6 animals were treated with 0.5 and 1 mg/Kg of the compound of Formula I for 1 month and endogenous MAPT expression was assessed by 2D gel electrophoresis. Tau protein isovariants consist of three series ranging from pI 10 to 6. The major and most basic isovariants correspond to the mouse Tau isoform comprising the sole exon 10 encoding sequence. The two other series of isoforms of molecular weight of 64 and 69 kDa are isovariants of Tau isoforms which, in addition to the exon 10, contain exon 2 or exon 2+3 encoding sequences, respectively.

## CC(C)CN(CCCN1CCN(CCCNc2c3c(nc4ccccc24)CCCC3)CC1)CC(C)C [compound of Formula I, N-[3-(4-{3-[Bis(2-methylpropyl)amino]propyl}piperazin-1-yl)propyl]-1,2,3,4-tetrahydroacridin-9-amine]
[1]
  Tau isovariants at the neutral pI, N- and C-terminal directed pan-Tau antibodies: reduction
  Tau isovariants at the neutral pI, Tau396 phospho-dependent antibody (S396): reduction
[2]; 0.5 mg/Kg
  number of Tau isovariants stained with antibody S199: 3 isovariants
[2]; 0.5 mg/Kg, brain 2D gel, FIG. 3
  low molecular weight Tau catabolic products (Tau-Cter antibody): increased in number and intensity
[2]; 1 mg/Kg
  number of Tau isovariants stained with antibody S199: 2 isovariants
[2]; 0.5 and 1 mg/Kg in drinking water, brain 2D gel, FIG. 3
  distribution of Tau isovariants (Tau-Cter antibody): did not significantly change
[2]; 0.5 and 1 mg/Kg, 2D gel
  surface of the spots stained with antibody S199: reduced
[2]; after treatment 0.5 and 1 mg/Kg
  overall 2D profile of the full-length Tau isoforms: preserved
